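In this assay, cells in 96-well plates receive the compound at five concentrations for 48 hours. Endpoints are linearly interpolated between the surrounding concentrations. GI50 is the concentration that inhibits growth by half. TGI denotes the concentration required for complete inhibition of growth.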 Where a SMILES comes first, the peptide text is derived from it. [ ]: non-standard residue; d: D form. The star is where a group is joined. Cbz = O=C(OCc1ccccc1)*; Aib = CC(C)(N)C(=O)O
Experiments:
Test in all cases: NCI anticancer screen, dose series, 48 h
[1] = system: BT-549 breast
[2] = system: CCRF-CEM leukemia
[3] = system: HCT-15 colon
[4] = system: HT29 colon
[5] = system: MCF7 breast
[6] = system: MDA-N
[7] = system: NCI-H460 lung
[8] = system: SF-539 CNS
[9] = system: SK-MEL-28 melanoma
[10] = system: SK-MEL-5 melanoma
[11] = system: SW-620 colon
[12] = system: SK-OV-3 ovarian
[13] = system: UACC-62 melanoma

SMILES | TGI [1] [µM] | TGI [2] [µM] | TGI [3] [µM] | TGI [4] [µM] | TGI [5] [µM] | TGI [6] [µM] | TGI [7] [µM] | TGI [8] [µM] | TGI [9] [µM] | TGI [10] [µM] | TGI [11] [µM] | TGI [12] [µM] | TGI [13] [µM] | GI50 [1] [µM] | GI50 [2] [µM] | GI50 [8] [µM] | GI50 [9] [µM] | GI50 [10] [µM] | GI50 [12] [µM] | GI50 [13] [µM]
Cc1ccc(C(=O)N/N=C(\N=Nc2ccccc2C(=O)O)c2ccc(N(C)C)cc2)cc1 | > 100 | > 100 | > 100 | > 100 | > 100 | 57.7 | > 100 | > 100 | > 100 | > 100 | > 100 | – | – | – | – | – | – | – | – | –
CSc1nc(-c2ccccc2)nc(=[N+]2CCOCC2)s1 | – | 62.6 | > 100 | > 100 | – | – | > 100 | > 100 | > 100 | > 100 | > 100 | > 100 | > 100 | – | – | – | – | – | – | –
NS(=O)(=O)c1ccc(NCc2nc3ccccc3[nH]2)cc1 | > 100 | – | > 100 | > 100 | > 100 | > 100 | > 100 | > 100 | – | > 100 | – | > 100 | > 100 | – | – | – | – | – | – | –
Cc1cc(OCC(O)CO)ccc1Cl (centres undefined) | – | > 100 | > 100 | > 100 | – | – | > 100 | > 100 | > 100 | > 100 | > 100 | > 100 | > 100 | – | – | – | – | – | – | –
COc1ccc(/C=C2\OC(=O)C(Cl)=C2c2ccc(OC)c(Cl)c2)cc1 | – | > 100 | > 100 | > 100 | 46.1 | 47.1 | 59 | 33.2 | > 100 | 48.6 | > 100 | > 100 | 80 | – | – | – | – | – | – | –
COc1cccc(N(CN2C(=O)CCC2OC)C(C)=O)c1 (centres undefined) | – | > 100 | > 100 | > 100 | > 100 | > 100 | > 100 | > 100 | > 100 | > 100 | > 100 | > 100 | > 100 | – | – | – | – | – | – | –
N=C(N)c1ccc(-c2ccc(-c3ccc(Cl)cc3Cl)s2)nc1 | 28.6 | 5.01 | – | – | – | – | – | 3.06 | 3.28 | 3.24 | – | 25.6 | 3.65 | 6.53 | 2.27 | 1.66 | 1.76 | 1.77 | 8 | 1.9
CCOC(=O)CCC(NC(=O)c1ccc(Nc2nc3ccccc3nc2C(=O)OCC)s1)C(=O)OCC (centres undefined) | > 100 | – | > 100 | > 100 | > 100 | > 100 | > 100 | > 100 | > 100 | > 100 | > 100 | > 100 | > 100 | – | – | – | – | – | – | –
CCOP(=O)(Cc1nc(C#N)c(N)o1)OCC | – | > 100 | > 100 | > 100 | > 100 | > 100 | > 100 | – | > 100 | > 100 | > 100 | > 100 | > 100 | – | – | – | – | – | – | –
ClC1=C(Cl)C2OC3C=CCC3OC2C(Cl)=C1Cl (centres undefined) | – | > 100 | > 100 | 72.1 | > 100 | > 100 | > 100 | > 100 | > 100 | > 100 | > 100 | > 100 | – | – | – | – | – | – | – | –
O=[N+]([O-])c1ccc(Nc2cccc3c2[nH]c2c(-c4ccccc4)nccc23)c([N+](=O)[O-])c1 | – | > 100 | > 100 | > 100 | > 100 | – | > 100 | > 100 | > 100 | > 100 | > 100 | > 100 | > 100 | – | – | – | – | – | – | –
O=S(=O)(O)c1cc(N=[N+]([O-])c2ccc(N=Nc3ccccc3)cc2S(=O)(=O)O)ccc1/C=C/c1ccc(N=[N+]([O-])c2ccc(N=Nc3ccccc3)cc2S(=O)(=O)O)cc1S(=O)(=O)O | – | > 100 | > 100 | > 100 | > 100 | – | > 100 | > 31.6 | > 100 | > 100 | > 100 | > 100 | > 100 | – | – | – | – | – | – | –
CC(C)(NC(=O)C(C)(C)NC(=O)OCc1ccccc1)C(=O)O (Cbz-[Aib]-[Aib]-OH) | – | > 100 | > 100 | > 100 | > 100 | > 100 | > 100 | > 100 | > 100 | > 100 | > 100 | > 100 | > 100 | – | – | – | – | – | – | –
Nc1ncc2c(n1)-c1ccccc1OC2 | – | > 100 | > 100 | > 100 | > 100 | – | > 100 | > 100 | > 100 | > 100 | > 100 | > 100 | > 100 | – | – | – | – | – | – | –
CCOC(=O)C1=C(C)N(Cc2ccccc2)C2(O)C(OC)CC(=O)C3C(=O)N(c4ccccc4)C(=O)C132 (centres undefined) | 24.3 | > 100 | > 100 | 23.9 | 34.5 | – | > 100 | 48.6 | 23.3 | 37.1 | > 100 | – | 21.6 | – | – | – | – | – | – | –
CCOC(=O)Cc1cc(=O)[nH]c(-n2[nH]c(C)c(CCO)c2=O)n1 | – | > 100 | > 100 | > 100 | > 100 | > 100 | > 100 | > 100 | > 100 | > 100 | > 100 | > 100 | > 100 | – | – | – | – | – | – | –
O=C1c2cc3ncsc3cc2C(=O)c2c(O)ccc(O)c21 | > 100 | > 100 | > 100 | > 100 | > 100 | > 100 | > 100 | > 100 | > 100 | > 100 | > 100 | – | > 100 | – | – | – | – | – | – | –
O=C(O)c1cccc(S(=O)(=O)NN2C(=O)CSC2c2c(O)ccc3ccccc23)c1 (centres undefined) | – | 46.4 | > 100 | 69.2 | – | > 100 | > 100 | 55.8 | 79.2 | 62.5 | 65.7 | > 100 | 66.4 | – | – | – | – | – | – | –

Reference: PubChem BioAssay (NCI)
